The test system of data set [1] is Plutella xylostella (Diamond Back Moth). As to the kind of experiment: Example B5: Plutella xylostella (diamond back moth), artificial diet, 24-well. Type of data set: in vivo. The note with it: 192 h, application rate 200 ppm, eggs, 8 days after infestation, read-out: control in at least one of the two categories (mortality or growth inhibition). The procedure: Example B5: Plutella xylostella (Diamond Back Moth)
24-well microtiter plates with artificial diet were treated with aqueous test solutions prepared from 10′000 ppm DMSO stock solutions by pipetting. After drying, Plutella eggs were pipetted through a plastic stencil onto a gel blotting paper and the plate was closed with it. The samples were assessed for mortality and growth inhibition in comparison to untreated samples 8 days after infestation.

For data set [2], the system named is Plutella xylostella (Diamondback Moth). Kind of data set: Example B13: Plutella xylostella (diamondback moth), artificial diet, 96-well. Format: in vivo. The note with it: 216 h, application rate 500 ppm, eggs/L1 larvae, 9 days after infestation. The procedure: Example B13: Plutella xylostella (Diamondback Moth)
96-well microtiter plates containing artificial diet were treated with aqueous test solutions, prepared from 10′000 ppm DMSO stock solutions, by a liquid handling robot. After drying, eggs (˜30 per well) were infested onto a netted lid which was suspended above the diet. The eggs hatch and L1 larvae move down to the diet. The samples were assessed for mortality 9 days after infestation.

The test system of data set [3] is Chilo suppressalis (Striped Rice Stemborer). Kind of data set: Example B4: Chilo suppressalis (striped rice stemborer), artificial diet. Format: in vivo. The note with it: 144 h, application rate 200 ppm, L2 larvae, 6 days after infestation, read-out: control in at least one of the three categories (mortality, anti-feedant or growth inhibition). As to the method:
Example B4: Chilo suppressalis (Striped Rice Stemborer)
24-well microtiter plates with artificial diet were treated with aqueous test solutions prepared from 10′000 ppm DMSO stock solutions by pipetting. After drying, the plates were infested with L2 larvae (6-8 per well). The samples were assessed for mortality, anti-feeding effect, and growth inhibition in comparison to untreated samples 6 days after infestation. Control of Chilo suppressalis by a test sample is given when at least one of the categories mortality, anti-feedant effect, and growth inhibition is higher than the untreated sample.

Data set [4] deals with Spodoptera littoralis (Egyptian Cotton Leaf Worm). As to the kind of experiment: Example B9: Spodoptera littoralis (Egyptian cotton leaf worm), sprayed cotton leaf discs. The note with it: foliar, 72 h, application rate 200 ppm, L1 larvae, 3 days after infestation, read-out: control in at least one of the three categories (mortality, anto-feedant or growth inhibition). Type of data set: in vivo.

For data set [5], the system named is Diabrotica balteata (Corn Root Worm). As to the kind of experiment: Example B1: Diabrotica balteata (corn root worm), sprayed maize sprouts. The note with it: 96 h, application rate 200 ppm, L2 larvae, 4 days after infestation, read-out: control in at least one of the two categories (mortality or growth inhibition). Type of data set: in vivo. The procedure:
Example B1: Diabrotica balteata (Corn Root Worm)
Maize sprouts placed onto an agar layer in 24-well microtiter plates were treated with aqueous test solutions prepared from 10′000 ppm DMSO stock solutions by spraying. After drying, the plates were infested with L2 larvae (6 to 10 per well). The samples were assessed for mortality and growth inhibition in comparison to untreated samples 4 days after infestation.

In general, mortality refers to the percentage killed. Higher therefore signals a strong lethal effect. As a reminder, the melting point is the temperature of the solid-liquid transition.

Consider `CC(NC(=O)c1cc(C2CC2)cc(C(F)(F)F)c1)c1nc(Br)nn1-c1ccc(OCC(F)F)cn1` (centres unmarked) [Compound P27, N-[1-[5-bromo-2-[5-(2,2-difluoroethoxy)-2-pyridyl]-1,2,4-triazol-3-yl]ethyl]-3-cyclopropyl-5-(trifluoromethyl)benzamide], for which the percent control (mortality or growth inhibition) at 200 ppm in data set [1] is ≥ 80%. For the same molecule, the mortality at 500 ppm in data set [2] was ≥ 80%. For the same molecule, the percent control (mortality, anti-feedant or growth inhibition) at 200 ppm in data set [3] was ≥ 80%.

For `CC(NC(=O)c1cc(C(F)(F)F)nc(C2(C#N)CC2)c1)c1nc(Br)nn1-c1ncc(OCC(F)(F)F)cn1` (centres unmarked) [Compound P34, N-[1-[5-bromo-2-[5-(2,2,2-trifluoroethoxy)pyrimidin-2-yl]-1,2,4-triazol-3-yl]ethyl]-2-(1-cyanocyclopropyl)-6-(trifluoromethyl)pyridine-4-carboxamide], the melting point was in the range of 157 to 159 °C.

Regarding `CC(NC(=O)c1cc(C(F)(F)F)nc(C2(C#N)CC2)c1)c1nc(Br)nn1-c1ccc(OCC(F)F)cn1` (centres unmarked) [Compound P32, N-[1-[5-bromo-2-[5-(2,2-difluoroethoxy)-2-pyridyl]-1,2,4-triazol-3-yl]ethyl]-2-(1-cyanocyclopropyl)-6-(trifluoromethyl)pyridine-4-carboxamide], the melting point fell in the range of 147 to 149 °C.

As for `CC(NC(=O)c1cc(C2CC2(F)F)cc(C(F)(F)F)c1)c1nc(Br)nn1-c1ncc(OCC(F)F)cn1` (centres unmarked) [Compound P8, N-[1-[5-bromo-2-[5-(2,2-difluoroethoxy)pyrimidin-2-yl]-1,2,4-triazol-3-yl]ethyl]-3-(2,2-difluorocyclopropyl)-5-(trifluoromethyl)benzamide], the percent control (mortality or growth inhibition) at 200 ppm in data set [1] and in data set [5] was ≥ 80% throughout. In addition, the percent control (mortality, anti-feedant or growth inhibition) at 200 ppm in data set [4] and in data set [3] was ≥ 80% in each case. The mortality at 500 ppm in data set [2] is ≥ 80%.

Consider `CC(NC(=O)c1cc(C2CC2(F)F)cc(C(F)(F)F)c1)c1nc(Br)nn1-c1ncc(OC(F)F)cn1` (centres unmarked) [Compound P12, N-[1-[5-bromo-2-[5-(difluoromethoxy)pyrimidin-2-yl]-1,2,4-triazol-3-yl]ethyl]-3-(2,2-difluorocyclopropyl)-5-(trifluoromethyl)benzamide], for which the percent control (mortality or growth inhibition) at 200 ppm in data set [1] and in data set [5] was ≥ 80% in each case. Moreover, the percent control (mortality, anti-feedant or growth inhibition) at 200 ppm in data set [4] and in data set [3] was ≥ 80% each time. In addition, the mortality at 500 ppm in data set [2] was ≥ 80%.

As for `CC(NC(=O)c1cc(C2CC2(F)F)cc(C(F)(F)F)c1)c1nc(Br)nn1-c1ccc(C#N)cn1` (centres unmarked) [Compound P6, N-[1-[5-bromo-2-(5-cyano-2-pyridyl)-1,2,4-triazol-3-yl]ethyl]-3-(2,2-difluorocyclopropyl)-5-(trifluoromethyl)benzamide], the percent control (mortality or growth inhibition) at 200 ppm in data set [1] and in data set [5] was ≥ 80% in each case. The percent control (mortality, anti-feedant or growth inhibition) at 200 ppm in data set [4] and in data set [3] was ≥ 80% each time. Further, the mortality at 500 ppm in data set [2] was ≥ 80%.

For `CC(NC(=O)c1cc(C(F)(F)F)nc(C2(C#N)CC2)c1)c1nc(Br)nn1-c1ccc(OC(F)F)cn1` (centres unmarked) [Compound P30, N-[1-[5-bromo-2-[5-(difluoromethoxy)-2-pyridyl]-1,2,4-triazol-3-yl]ethyl]-2-(1-cyanocyclopropyl)-6-(trifluoromethyl)pyridine-4-carboxamide], the melting point was in the range of 152 to 154 °C.

Take `CC(NC(=O)c1cc(C2CC2)cc(C(F)(F)F)c1)c1nc(Br)nn1-c1ncc(OCC(F)(F)F)cn1` (centres unmarked) [Compound P5, N-[1-[5-bromo-2-[5-(2,2,2-trifluoroethoxy)pyrimidin-2-yl]-1,2,4-triazol-3-yl]ethyl]-3-cyclopropyl-5-(trifluoromethyl)benzamide]: the percent control (mortality or growth inhibition) at 200 ppm in data set [1] and in data set [5] was ≥ 80% each time. In addition, the percent control (mortality, anti-feedant or growth inhibition) at 200 ppm in data set [4] and in data set [3] was ≥ 80% throughout. For the same molecule, in data set [2], the mortality at 500 ppm was ≥ 80%.

Regarding `CC(NC(=O)c1cc(C(F)(F)F)nc(C2(C#N)CC2)c1)c1nc(Br)nn1-c1ccc(OCC(F)(F)F)cn1` (centres unmarked) [Compound P33, N-[1-[5-bromo-2-[5-(2,2,2-trifluoroethoxy)-2-pyridyl]-1,2,4-triazol-3-yl]ethyl]-2-(1-cyanocyclopropyl)-6-(trifluoromethyl)pyridine-4-carboxamide], the melting point lay in the range of 82 to 84 °C.

For `CC(NC(=O)c1cc(C(F)(F)F)cc(C(F)(F)C2CC2)c1)c1nc(Br)nn1-c1ccc(OCC(F)F)cn1` (centres unmarked) [Compound P31, N-[1-[5-bromo-2-[5-(2,2-difluoroethoxy)-2-pyridyl]-1,2,4-triazol-3-yl]ethyl]-3-[cyclopropyl(difluoro)methyl]-5-(trifluoromethyl)benzamide], the melting point lay within 140 to 142 °C.

Regarding `CC(NC(=O)c1cc(C2CC2(F)F)cc(C(F)(F)F)c1)c1nc(Br)nn1-c1ccc(OCC(F)F)cn1` (centres unmarked) [Compound P22, N-[1-[5-bromo-2-[5-(2,2-difluoroethoxy)-2-pyridyl]-1,2,4-triazol-3-yl]ethyl]-3-(2,2-difluorocyclopropyl)-5-(trifluoromethyl)benzamide], in data set [1], the percent control (mortality or growth inhibition) at 200 ppm is ≥ 80%. In addition, the percent control (mortality, anti-feedant or growth inhibition) at 200 ppm in data set [4] and in data set [3] was ≥ 80% in each case. Moreover, the mortality at 500 ppm in data set [2] is ≥ 80%.

With `CC(NC(=O)c1cc(C(F)(F)F)nc(C2(C#N)CC2)c1)c1nc(Br)nn1-c1ccc(C#N)cn1` (centres unmarked) [Compound P2, N-[1-[5-bromo-2-(5-cyano-2-pyridyl)-1,2,4-triazol-3-yl]ethyl]-2-(1-cyanocyclopropyl)-6-(trifluoromethyl)pyridine-4-carboxamide], the percent control (mortality or growth inhibition) at 200 ppm in data set [1] and in data set [5] was ≥ 80% in each case. For the same molecule, the percent control (mortality, anti-feedant or growth inhibition) at 200 ppm in data set [4] and in data set [3] was ≥ 80% throughout.

For `CC(NC(=O)c1cc(C(F)(F)F)cc(C(C)(C)C#N)c1)c1nc(Br)nn1-c1ccc(OCC(F)F)cn1` (centres unmarked) [Compound P40, N-[1-[5-bromo-2-[5-(2,2-difluoroethoxy)-2-pyridyl]-1,2,4-triazol-3-yl]ethyl]-3-(1-cyano-1-methyl-ethyl)-5-(trifluoromethyl)benzamide], the percent control (mortality or growth inhibition) at 200 ppm in data set [1] was ≥ 80%. Further, the percent control (mortality, anti-feedant or growth inhibition) at 200 ppm in data set [4] and in data set [3] was ≥ 80% each time. The mortality at 500 ppm in data set [2] is ≥ 80%.

With `CC(NC(=O)c1cc(C2CC2)cc(C(F)(F)F)c1)c1nc(Br)nn1-c1ncc(OCC(F)F)cn1` (centres unmarked) [Compound P18, N-[1-[5-bromo-2-[5-(2,2-difluoroethoxy)pyrimidin-2-yl]-1,2,4-triazol-3-yl]ethyl]-3-cyclopropyl-5-(trifluoromethyl)benzamide], the percent control (mortality or growth inhibition) at 200 ppm in data set [1] and in data set [5] was ≥ 80% each time. For the same molecule, the percent control (mortality, anti-feedant or growth inhibition) at 200 ppm in data set [4] and in data set [3] was ≥ 80% in each case. Also, the mortality at 500 ppm in data set [2] was ≥ 80%.

For the molecule `CC(NC(=O)c1cc(C(F)(F)F)cc(S(=O)(=O)C(F)(F)F)c1)c1nc(Br)nn1-c1ncc(OCC(F)F)cn1` (centres unmarked) [Compound P24, N-[1-[5-bromo-2-[5-(2,2-difluoroethoxy)pyrimidin-2-yl]-1,2,4-triazol-3-yl]ethyl]-3-(trifluoromethyl)-5-(trifluoromethylsulfonyl) benzamide], the percent control (mortality or growth inhibition) at 200 ppm in data set [1] is ≥ 80%. The percent control (mortality, anti-feedant or growth inhibition) at 200 ppm in data set [4] and in data set [3] was ≥ 80% in each case. The mortality at 500 ppm in data set [2] is ≥ 80%.

For `CC(NC(=O)c1cc(C(F)(F)F)cc(C(F)(F)C2CC2)c1)c1nc(Br)nn1-c1ccc(C#N)cn1` (centres unmarked) [Compound P21, N-[1-[5-bromo-2-(5-cyano-2-pyridyl)-1,2,4-triazol-3-yl]ethyl]-3-[cyclopropyl(difluoro)methyl]-5-(trifluoromethyl)benzamide], the percent control (mortality or growth inhibition) at 200 ppm in data set [1] and in data set [5] was ≥ 80% each time. Further, the percent control (mortality, anti-feedant or growth inhibition) at 200 ppm in data set [4] and in data set [3] was ≥ 80% throughout.
